Laboratory results taken from patent publication US20150344466A1 (SUMITOMO CHEMICAL COMPANY, LIMITED, priority 2013, published 2015).

Key:
Format in all cases: in vivo
Blattella germanica [1] = assay: Knockdown spray test on Blattella germanica, 2.0% w/v oil formulation (Test Example 1); conditions: topical, 0.25 h, active ingredient 2.0% w/v, 1.5 ml sprayed, within 15 minutes, read-out: knockdown rate of the test insects within 15 minutes
Method: Ten Blattella germanica (5 males and 5 females) were released in a test container (8.75 cm in diameter, 7.5 cm in height, and the bottom made of 16 mesh metallic wire) with the inner wall on which butter was applied, and the container was placed on the bottom of a test chamber (bottom: 46 cm×46 cm, height: 70 cm). From a height of 60 cm above the upper surface of the container, 1.5 ml of the test drug solution was sprayed using a spray gun (a spraying pressure of 0.42 kg/cm^2). Thirty seconds after spraying, the container was taken out from the test chamber, and after 2 minutes, 5 minutes and 15 minutes, the number of knocked-down insects was counted to obtain a knockdown rate. The knockdown rate was calculated by the following equation.
(§1) Knockdown Rate (%)=(Number of Knocked-down Insects/Number of Tested Insects)×100

Musca domestica [2] = assay: Knockdown spray test on adult Musca domestica (Test Example 3); conditions: topical, 0.25 h, active ingredient 2.0% w/v, 0.5 ml sprayed, within 15 minutes, read-out: knockdown rate of the test insects within 15 minutes
Method: Ten adult Musca domestica (five males and five females) were released in a polyethylene cup (bottom diameter: 10.6 cm), and the cup was covered with a 16-mesh nylon gauze. The polyethylene cup was placed on the bottom of a test chamber (bottom: 46 cm×46 cm, height: 70 cm). From a height of 30 cm above the upper surface of the polyethylene cup, 0.5 ml of the test drug solution was sprayed using a spray gun (a spraying pressure of 0.9 kg/cm^2). Immediately after spraying, the cup was taken out from the test chamber, and after 2 minutes, 5 minutes and 15 minutes, the number of knocked-down insects was counted to obtain a knockdown rate. The knockdown rate was calculated by the following equation.
as §1

Culex pipiens pallens = assay: Knockdown spray test on adult Culex pipiens pallens (Test Example 4); conditions: topical, 0.25 h, active ingredient 0.1% w/v, 0.5 ml sprayed, within 15 minutes, read-out: knockdown rate of the test insects within 15 minutes
Summary of the method: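 Knockdown counts were taken 2, 5 and 15 min after spraying and expressed as percent of the 10 adults tested. For the spray, 0.5 ml of solution was applied by spray gun (0.4 kg/cm^2) from 30 cm above a gauze-covered cup in a test chamber; the cup was taken out right after spraying.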

Plutella xylostella = assay: Foliar spray test on Plutella xylostella on cabbage (Test Example 10); conditions: 120 h, third instar larvae of Plutella xylostella on cabbage, 500 ppm spray 20 ml/cup, after five days, read-out: controlling value
Method: On the other hand, cabbage was planted in a polyethylene cup, and grown until the third-fourth true leaf was spread. The test spray solution was sprayed to the cabbage at a ratio of 20 ml/cup. After the drug solution sprayed on the cabbage was dried, 10 third instar larvae of Plutella xylostella were allowed to parasitize the cabbage. After five days, the number of Plutella xylostella was investigated, and the controlling value was calculated according to the following standard. Controlling value (%)={1−(Cb×Tai)/(Cai×Tb)}×100 In the equation, the symbols represent as follows. Cb: the number of insects in a non-treated section before treatment Cai: the number of insects in a non-treated section on observation Tb: the number of insects in a treated section before treatment Tai: the number of insects in a treated section on observation

Blattella germanica [3] = assay: Knockdown spray test on Blattella germanica, 0.1% w/v oil formulation (Test Example 2); conditions: topical, 0.25 h, active ingredient 0.1% w/v, 1.5 ml sprayed, within 15 minutes, read-out: knockdown rate of the test insects within 15 minutes
Summary of the method: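 Ten German cockroaches (5 males, 5 females) in a mesh-bottomed, butter-walled container were sprayed with 1.5 ml test solution from 60 cm at 0.42 kg/cm^2 inside a chamber.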

Musca domestica [4] = assay: Filter paper/sucrose bait death rate test on Musca domestica (Test Example 5); conditions: female imagoes of Musca domestica, 0.7 ml on filter paper, after 24 hours
Method: A filter paper having a diameter of 5.5 cm was spread on the bottom of a polyethylene cup having the same diameter and 0.7 ml of the test drug solution was added dropwise onto the filter paper, and 30 mg of sucrose was uniformly placed as bait.
Into the polyethylene cup, 10 female imagoes of Musca domestica were released, and the cup was sealed with a lid. After 24 hours, the life and death of Musca domestica was examined, and the death rate was calculated. The death rate was calculated by the following equation.
Death rate (%)=(Number of dead insects/Number of tested insects)×100

| SMILES | pest or weed control at 2 % strength (Blattella germanica [1]) [%] | pest or weed control at 2 % strength (Musca domestica [2]) [%] | pest or weed control at 0.1 % strength (Culex pipiens pallens) [%] | pest or weed control at 500 ppm (Plutella xylostella) [%] | pest or weed control at 0.1 % strength (Blattella germanica [3]) [%] | pest or weed control at 500 ppm (Musca domestica [4]) [%] |
| --- | --- | --- | --- | --- | --- | --- |
| CCCCc1cc(C(=O)NCC2CCOC2)no1 (stereo not drawn) [(11), N-(tetrahydrofuran-3-ylmethyl)-5-butylisoxazole-3-carboxamide] | ≥ 80 | ≥ 80 | ≥ 80 |  |  |  |
| O=C(NCC1CCCCO1)c1cc(COCc2ccccc2)on1 (stereo not drawn) [(14), N-(tetrahydropyran-2-ylmethyl)-5-benzyloxymethylisoxazole-3-carboxamide] | ≥ 80 | ≥ 80 | ≥ 80 |  |  |  |
| O=C(NCC1CCOC1)c1cc(COc2ccccc2)on1 (stereo not drawn) [(23), N-(tetrahydrofuran-3-ylmethyl)-5-phenyloxymethylisoxazole-3-carboxamide] | ≥ 80 |  | ≥ 80 | ≥ 90 |  |  |
| O=C(NCC1CCOC1)c1cc(COCc2cccc3ccccc23)on1 (stereo not drawn) [(27), N-(tetrahydrofuran-3-ylmethyl)-5-(1-naphthylmethoxymethyl)isoxazole-3-carboxamide] | ≥ 80 | ≥ 80 | ≥ 80 |  |  |  |
| O=C(NCC1CCOC1)c1cc(COCc2cccc(C(F)(F)F)c2)on1 (stereo not drawn) [(64), N-(tetrahydrofuran-3-ylmethyl)-5-(3-trifluoromethylbenzyloxymethyl)isoxazole-3-carboxamide] | ≥ 80 | ≥ 80 | ≥ 80 |  |  |  |
| Cc1ccc(COCc2cc(C(=O)NCC3CCOC3)no2)cc1 (stereo not drawn) [(97), N-(tetrahydrofuran-3-ylmethyl)-5-(4-methylbenzyloxymethyl)isoxazole-3-carboxamide] |  |  | ≥ 80 | ≥ 90 | ≥ 80 |  |
| Cc1ccc(COCc2cc(C(=O)NCC3CCOCC3)no2)cc1 [(98), N-(tetrahydropyran-4-ylmethyl)-5-(4-methylbenzyloxymethyl)isoxazole-3-carboxamide] |  |  | ≥ 80 | ≥ 90 | ≥ 80 |  |
| COc1ccc(COCc2cc(C(=O)NCC3CCOCC3)no2)cc1 [(100), N-(tetrahydropyran-4-ylmethyl)-5-(4-methoxybenzyloxymethyl) isoxazole-3-carboxamide] |  |  | ≥ 80 | ≥ 90 | ≥ 80 | ≥ 90 |
| CSc1ccc(COCc2cc(C(=O)NCC3CCOC3)no2)cc1 (stereo not drawn) [(103), N-(tetrahydrofuran-3-ylmethyl)-5-(4-methylthiobenzyloxymethyl)isoxazole-3-carboxamide] |  |  | ≥ 80 | ≥ 90 | ≥ 80 |  |
| CSc1ccc(COCc2cc(C(=O)NCC3CCOCC3)no2)cc1 [(104), N-(tetrahydropyran-4-ylmethyl)-5-(4-methylthiobenzyloxymethyl)isoxazole-3-carboxamide] |  |  | ≥ 80 | ≥ 90 | ≥ 80 |  |
| O=C(NCC1CCOC1)c1cc(COCc2cccc(-c3ccccc3)c2)on1 (stereo not drawn) [(113), N1-(tetrahydrofuran-3-ylmethyl)-5-(3-phenylbenzyloxymethyl)isoxazole-3-carboxamide] | ≥ 80 | ≥ 80 | ≥ 80 |  |  |  |
| O=C(NCC1CCOC1)c1cc(COCC2COc3ccccc3O2)on1 (stereo not drawn) [(120), N-(tetrahydrofuran-3-ylmethyl)-5-(1,4-benzodioxan-2-ylmethoxymethyl)isoxazole-3-carboxamide] |  | ≥ 80 | ≥ 80 |  | ≥ 80 |  |
| O=C(NCC1CCOC1)c1cc(COCCC2CCCC2)on1 (stereo not drawn) [(132), N-(tetrahydrofuran-3-ylmethyl)-5-(2-cyclopentylethyl)oxymethylisoxazole-3-carboxamide] |  | ≥ 80 | ≥ 80 |  | ≥ 80 | ≥ 90 |
| O=C(NCC1CCOC1)c1cc(Cc2ccc3ccccc3c2)on1 (stereo not drawn) [(159), N-(tetrahydrofuran-3-ylmethyl)-5-(naphthalen-2-ylmethyl)isoxazole-3-carboxamide] |  | ≥ 80 | ≥ 80 |  |  |  |
| O=C(NCC1CCOC1)c1cc(Cc2cccc3ccccc23)on1 (stereo not drawn) [(160), N-(tetrahydrofuran-3-ylmethyl)-5-(naphthalen-1-ylmethyl)isoxazole-3-carboxamide] |  | ≥ 80 | ≥ 80 |  |  |  |
| Cc1c(C(=O)NCC2CCOC2)noc1COCc1ccccc1 (stereo not drawn) [(169), N-(tetrahydrofuran-3-ylmethyl)-(5-benzyloxymethyl-4-methyl) isoxazole-3-carboxamide] |  | ≥ 80 | ≥ 80 |  | ≥ 80 |  |
| O=C(NCC1CCOC1)c1cc(COc2ccccc2Cl)on1 (stereo not drawn) [(176), N-(tetrahydrofuran-3-ylmethyl)-5-(2-chlorophenoxymethyl)isoxazole-3-carboxamide] |  | ≥ 80 | ≥ 80 |  | ≥ 80 | ≥ 90 |
| Cc1c(C(=O)NCC2CCOC2)noc1COCc1ccc2ccccc2c1 (stereo not drawn) [(213), N-(tetrahydrofuran-3-ylmethyl)-4-methyl-5-(2-naphthylmethoxymethyl)isoxazole-3-carboxamide] |  | ≥ 80 | ≥ 80 |  | ≥ 80 |  |
| O=C(NCC1CCOCC1)c1cc(CCCc2ccccc2)on1 [(235), N-(tetrahydropyran-4-ylmethyl)-5-(3-phenylpropyl)isoxazole-3-carboxamide] |  | ≥ 80 | ≥ 80 |  | ≥ 80 |  |
| O=C(NCC1CCOC1)c1cc(COC/C=C/c2ccccc2)on1 (stereo not drawn) [(242), N-(tetrahydrofuran-3-ylmethyl)-5-(3-phenyl-(E)-2-propenyloxymethyl)isoxazole-3-carboxamide] |  | ≥ 80 | ≥ 80 |  |  |  |
| O=C(NCC1CCOC1)c1cc(COCc2ccccc2F)on1 (stereo not drawn) [(264), N-(tetrahydrofuran-3-ylmethyl)-5-(2-fluorobenzyloxymethyl)isoxazole-3-carboxamide] |  | ≥ 80 | ≥ 80 |  | ≥ 80 | ≥ 90 |
| Cc1c(C(=O)NCC2CCOC2)noc1Cc1cccc(F)c1 (stereo not drawn) [(294), N-(tetrahydrofuran-3-ylmethyl)-4-methyl-5-(3-fluorobezyl)isoxazole-3-carboxamide] |  |  | ≥ 80 | ≥ 90 | ≥ 80 | ≥ 90 |
| O=C(NCC1CCOC1)c1cc(Cc2cccc(OC(F)(F)F)c2)on1 (stereo not drawn) [(313), N-(tetrahydrofuran-3-ylmethyl)-5-(3-trifluoromethoxybenzyl) isoxazole-3-carboxamide] |  |  | ≥ 80 | ≥ 90 | ≥ 80 | ≥ 90 |
